According to article PMC4632759, “Studies on [5,6]-Fused Bicyclic Scaffolds Derivatives as Potent Dual B-Raf^V600E/KDR Inhibitors Using Docking and 3D-QSAR Approaches” (International Journal of Molecular Sciences, 2015):
Like-named read-outs stand apart in the source and are kept apart here.

Key:
[1] = target: T1, B-Raf^V600E (Homo sapiens, UniProt P15056, V600E); test: B-Raf^V600E kinase inhibition (literature data set); assay type: biochemical; details: −log IC50 of literature IC50; for IC50: read-out: B-Raf Actual pIC50 (converted)
T1 sequence (P15056 whole entry V600E): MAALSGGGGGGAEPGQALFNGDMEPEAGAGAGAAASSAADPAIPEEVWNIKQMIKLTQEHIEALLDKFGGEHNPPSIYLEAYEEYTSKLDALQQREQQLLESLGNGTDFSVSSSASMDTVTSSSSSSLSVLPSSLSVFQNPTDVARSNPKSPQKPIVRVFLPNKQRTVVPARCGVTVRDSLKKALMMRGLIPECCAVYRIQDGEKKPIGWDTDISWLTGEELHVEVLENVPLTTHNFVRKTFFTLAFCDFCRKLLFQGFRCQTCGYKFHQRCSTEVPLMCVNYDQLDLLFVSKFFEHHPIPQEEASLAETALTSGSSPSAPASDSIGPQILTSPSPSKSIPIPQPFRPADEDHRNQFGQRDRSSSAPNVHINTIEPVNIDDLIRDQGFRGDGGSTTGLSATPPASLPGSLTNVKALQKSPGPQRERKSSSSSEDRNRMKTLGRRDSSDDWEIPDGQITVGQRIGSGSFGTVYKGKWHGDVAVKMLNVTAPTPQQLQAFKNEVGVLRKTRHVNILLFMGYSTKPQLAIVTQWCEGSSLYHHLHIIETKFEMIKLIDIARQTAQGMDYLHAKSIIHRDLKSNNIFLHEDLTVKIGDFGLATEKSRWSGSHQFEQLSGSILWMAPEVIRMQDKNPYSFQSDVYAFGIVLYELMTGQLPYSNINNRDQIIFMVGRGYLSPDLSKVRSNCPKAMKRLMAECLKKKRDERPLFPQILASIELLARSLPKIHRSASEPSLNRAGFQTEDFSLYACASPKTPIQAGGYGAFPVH
Protocol: The IC50 values of all compounds for B-Raf and KDR inhibition were converted to the −log IC50 (pIC50) as dependent variables in the 3D-QSAR analysis. The 3D structures for all 40 compounds were built and minimized, and then Gasteiger-Hückel charge was calculated. All works were all done in SYBYL 6.9 (Tripos, Inc.: St. Louis, MO, USA, 2002).

[2] = target: T1, B-Raf^V600E; design: method as in PMID 22376051, PMID 22763369, PMID 22883026, PMID 23906342; details: literature values used as 3D-QSAR data set; read-out: Kinase IC50 B-Raf^V600E; cited from earlier work
[3] = target: VEGFR2 (Homo sapiens, UniProt P35968); test: VEGFR2 (KDR) kinase inhibition (literature data set); assay type: biochemical; details: −log IC50 of literature IC50
VEGFR2, sequence (P35968 806-1171): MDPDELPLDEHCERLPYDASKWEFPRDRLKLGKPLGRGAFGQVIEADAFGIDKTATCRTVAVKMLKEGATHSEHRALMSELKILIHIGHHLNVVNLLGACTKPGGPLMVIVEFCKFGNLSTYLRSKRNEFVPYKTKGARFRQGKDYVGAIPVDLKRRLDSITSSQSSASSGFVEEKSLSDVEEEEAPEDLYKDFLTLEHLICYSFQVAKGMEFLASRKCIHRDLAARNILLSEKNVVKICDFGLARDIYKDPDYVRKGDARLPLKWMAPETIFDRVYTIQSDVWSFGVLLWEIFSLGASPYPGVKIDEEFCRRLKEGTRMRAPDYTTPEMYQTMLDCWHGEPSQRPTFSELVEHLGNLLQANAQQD
Protocol: The IC50 values of all compounds for B-Raf and KDR inhibition were converted to the −log IC50 (pIC50) as dependent variables in the 3D-QSAR analysis. The 3D structures for all 40 compounds were built and minimized, and then Gasteiger-Hückel charge was calculated.

Structure (SMILES): O=C(Nc1cccc(Oc2ccc3nc(NC(=O)C4CCOCC4)cn3n2)c1)c1cccc(C(F)(F)F)c1 [Compound 1-1]
- IC50 [1]: 42.7 nM
- IC50 [2]: 43 nM

Structure (SMILES): N#CC1(c2cccc(C(=O)Nc3cc(Oc4ccc5nc(NC(=O)C6CC6)sc5n4)ccc3F)c2Cl)CC1 [Compound 3-3]
- IC50 [1]: 7.08 nM
- IC50 ([3]; read-out: KDR Actual pIC50 (converted)): 2.19 nM

Structure (SMILES): CC(=O)Nc1nc2ccc(N(C)c3ccc(F)c(NC(=O)c4cccc(OC(C)(C)C#N)c4)c3)nc2s1 [Compound 3-6]
- B-Raf Actual pIC50 [1]: 7.64
- KDR Actual pIC50 [3]: 8.00

Structure (SMILES): CC(=O)Nc1nc2ccc(N(C)c3ccc(F)c(NC(=O)c4cccc(OC(C)(C)C#N)c4Cl)c3)nc2s1 [Compound 3-7]
- B-Raf Actual pIC50 [1]: 7.35
- KDR Actual pIC50 [3]: 7.85

Structure (SMILES): CN(c1ccc(F)c(NC(=O)c2cccc(OC(C)(C)C#N)c2Cl)c1)c1ccc2nc(NC(=O)C3CC3)sc2n1 [Compound 3-8]
- KDR Actual pIC50 [3]: 8.12

Structure (SMILES): CC(C)(C#N)c1cccc(C(=O)Nc2cccc(Oc3ccc4nc(NC(=O)C5CC5)sc4c3[N+](=O)[O-])c2)c1 [Compound 5-1]
- B-Raf Actual pIC50 [1]: 7.60
- KDR Actual pIC50 [3]: 7.15

Structure (SMILES): CC(C)(C#N)c1cccc(C(=O)Nc2cccc(Oc3ccc4nc(NC(=O)C5CC5)sc4c3C#N)c2)c1 [Compound 5-2]
- B-Raf Actual pIC50 [1]: 7.89
- KDR Actual pIC50 [3]: 7.12

Structure (SMILES): COC(=O)c1c(Oc2cccc(NC(=O)c3cccc(C(C)(C)C#N)c3)c2)ccc2nc(NC(=O)C3CC3)sc12 [Compound 5-3]
- B-Raf Actual pIC50 [1]: 7.92
- KDR Actual pIC50 [3]: 7.48

Structure (SMILES): CC(C)(C#N)c1cccc(C(=O)Nc2cccc(Oc3ccc4nc(NC(=O)C5CC5)sc4c3CO)c2)c1 [Compound 5-4]
- B-Raf Actual pIC50 [1]: 7.62
- KDR Actual pIC50 [3]: 8.13

Structure (SMILES): N#Cc1c(Oc2cccc(NC(=O)Nc3ccccc3C(F)(F)F)c2)ccc2nc(NC(=O)C3CC3)sc12 [Compound 6-1]
- B-Raf Actual pIC50 [1]: 7.72
- KDR Actual pIC50 [3]: 6.92

Structure (SMILES): N#Cc1c(Oc2cccc(NC(=O)Nc3ccc(C(F)(F)F)cc3)c2)ccc2nc(NC(=O)C3CC3)sc12 [Compound 6-2]
- B-Raf Actual pIC50 [1]: 7.74
- KDR Actual pIC50 [3]: 6.48

Structure (SMILES): N#Cc1c(Oc2ccc(F)c(NC(=O)Nc3cccc(C(F)(F)F)c3)c2)ccc2nc(NC(=O)C3CC3)sc12 [Compound 6-3]
- B-Raf Actual pIC50 [1]: 7.31
- KDR Actual pIC50 [3]: 6.14

Structure (SMILES): N#Cc1c(Oc2ccc(F)c(NC(=O)Nc3ccc(C(F)(F)F)cc3)c2)ccc2nc(NC(=O)C3CC3)sc12 [Compound 6-4]
- B-Raf Actual pIC50 [1]: 7.59
- KDR Actual pIC50 [3]: 6.18
- IC50 [2]: > 26 nM

Structure (SMILES): N#Cc1c(Oc2cccc(NC(=O)Cc3ccccc3C(F)(F)F)c2)ccc2nc(NC(=O)C3CC3)sc12 [Compound 6-5]
- B-Raf Actual pIC50 [1]: 7.85
- KDR Actual pIC50 [3]: 7.00

Structure (SMILES): N#Cc1c(Oc2cccc(NC(=O)Cc3cccc(C(F)(F)F)c3)c2)ccc2nc(NC(=O)C3CC3)sc12 [Compound 6-6]
- B-Raf Actual pIC50 [1]: 8.89
- KDR Actual pIC50 [3]: 6.82

Structure (SMILES): N#Cc1c(Oc2cccc(NC(=O)Cc3ccc(C(F)(F)F)cc3)c2)ccc2nc(NC(=O)C3CC3)sc12 [Compound 6-7]
- B-Raf Actual pIC50 [1]: 8.02
- KDR Actual pIC50 [3]: 6.72

Structure (SMILES): N#Cc1c(Oc2ccc(F)c(NC(=O)Cc3cccc(C(F)(F)F)c3)c2)ccc2nc(NC(=O)C3CC3)sc12 [Compound 6-8]
- B-Raf Actual pIC50 [1]: 8.62
- KDR Actual pIC50 [3]: 6.80
